{"source": "patent US12168003B2", "about": "“Selective inhibition of T follicular helper cells for treatment of autoimmune disorders” (priority 2019, dated 2024)", "assay_type_in_all_cases": "in vivo, mouse", "key": {"OT2 T cells": {"test_system": "OT2 T cells", "assay": "OT2 T cell pre-treatment with 4EGI-1 before adoptive transfer", "conditions": "20 μM 4EGI-1 1 hour before transfer", "procedure": "For functional TFH studies: OT2 T cells were isolated and activated, as described, and treated with vehicle or 20 μM 4EGI-1 for 1 hour at 37° C. in vitro prior to transfer of 2×10^6 OT2 T cells i.p. per CD45.1 recipient. Recipient animals were immunized with 100 μg OVA alum 4 days prior. Three days following transfer and 7 days following initial immunization, OT2 T cells that had formed TFH cells were determined.\nFor long-term studies: OT2 T cells were isolated and activated, as described, and treated with vehicle or 20 μM 4EGI-1 for 1 h at 37° C. in vitro prior to transfer of 12×10^6 OT2 T cells i.p. per CD45.1 recipient. OT2 T cells were enumerated 34 days post transfer and intracellular levels of eIF4E were determined."}, "TH2 cells and Tregs": {"test_system": "TH2 cells and Tregs", "assay": "A. fumigatus repeat sensitization airway disease model", "procedure": "A. fumigatus Fresenius (ATCC 13073) was grown for 7 days on potato dextrose agar plates (Thermo Scientific) at 37° C. Conidia were harvested by agitation in a flask with sterile PBS+0.1% Tween-20 and filtered through a 40 μm nylon mesh. Mice were intratracheally sensitized with 1.8×10^6 conidia in 50 μL of PBS on days 0, 7, and 11. On day 0 through 17 mice were treated daily with i.p. 25 mg/kg 4EGI-1 or vehicle. On day 18, mice were euthanized and lungs were collected along with mediastinal lymph node (MedLN) and blood. Serum was obtained and stored as described above.\nSpleens, draining lymph nodes, and brains were dissociated with the plunger-end of a syringe and passed through a 70 μm nylon filter. Splenocytes were subject to RBC lysis with ACK (Ammonium-Chloride-Potassium). Ears were subject to mechanical dissociation with scissors prior to incubation in 1 mL PBS in a 48-well plate with 100 μg/mL Liberase TL and 20 μg/mL DNase I for 1.5 hours at 37° C. Following incubation, cells were further dissociated by passing through a syringe, quenched with PBS+2% FCS, and filtered through a 70 μm nylon filter. Lungs were mechanically dissociated with a razor blade and incubated in a 6 cm dish with 5 mLs RPMI containing 250 μg/mL collagenase, 50 μg/mL Liberase TL, 1 mg/mL hyaluronidase, and 200 μg/mL DNase I for 30 minutes. Following incubation, cells quenched with PBS+2% FCS, and filtered through a 70 μm nylon filter. Ear and lung cells were subject to lymphocyte isolation using a gradient (Lymphocyte Separation Medium; Cellgro). Vertebral columns were flushed with PBS through a 19-gauge needle to remove intact spinal cords. Spinal cords were subject to mechanical dissociation with scissors and incubation in 1 mL PBS with 200 μg/mL DNase I and 50 μg/mL Liberase TL for 30 minutes at 37° C. Following incubation, cells were quenched with PBS+2% FCS and filtered through a 70 μm nylon filter.\n(§1) For quantification of OVA-specific IgG1, high-binding 96-well plates (Costar) were coated with 10 μg/mL OVA protein. For S. aureus-specific IgG1, plates were coated with heat-killed S. aureus (heat-killed at 80° C. for 30 min). For total IgE, plates were coated with 2 μg/mL rat anti-mouse IgE (Southern Biotech). Following overnight incubation at 4° C., plates were blocked with 1% BSA for 30 min at 37° C. After blocking, serum (diluted 1/20 initially then 1/2 down the plate) was incubated at 37° C. for 2 hours, plates were washed 3 times in PBS and then incubated with 1:1000 anti-mouse IgG1-HRP (Southern Biotech) or anti-mouse IgE-HRP (Southern Biotech) for 1 hour at 37° C. Plates were washed 3 times in PBS and incubated with TMB substrate. Following development, TMB Stop Solution (BioLegend®) was added and plates were read at […].\nLungs fixed in 4% PFA (ThermoFisher) and spinal cords fixed in 10% buffered formalin (Leica) were incubated overnight and moved to 70% ethanol prior to ethanol dehydration, xylene incubation, and paraffin embedding. Five-micron thick sections of lung were stained with hematoxylin and eosin (H&E), Periodic Acid-Schiff (PAS), or Masson's Trichrome Stain (MTS). Spinal cords were stained with H&E or Luxol fast blue and hematoxylin (LFB-H). Staining was visualized with an EVOS FLc microscope."}, "pre-existing TFH cells": {"test_system": "pre-existing TFH cells", "assay": "OVA/Alum immunization, 4EGI-1 after formation of TFH cells", "procedure": "OVA protein (Sigma A5503) was diluted in PBS and then in 20 mg/mL Imject Alum (ThermoFisher 77161) and mixed at room temperature for 30 minutes prior to i.p. injection of 100 μg OVA in 200 μL. When stated, mice were treated i.p. daily from day 0 to 6 or day 0 to 13 (just for TFR analysis) following OVA/Alum immunization with 25 mg/kg 4EGI-1 (MedChemExpress) or from day 7 to 13 following OVA/Alum immunization with 50 mg/kg or 75 mg/kg 4EGI-1. Vehicle control mice were administered 6 μL DMSO in 194 μL PBS i.p.\nPVDF-coated 96-well plates (Millipore) were activated with methanol for 2 minutes, washed with PBS, and coated with 4 μg/mL OVA overnight at 4° C. Plates were blocked with 1% BSA for 2 hours at 37° C. prior to incubation with 1×10^7 splenocytes in RPMI containing 2% Ultra-low IgG FCS, 55 μM 2ME, and 100 U/mL penicillin and 100 μg/mL streptomycin in the top well. Cells were diluted by 1/2 each row going down the plate and incubated immobile overnight at 37° C. Plates were washed with water+0.05% Tween 20 for 5 min prior to 3 washes in PBS+0.05% Tween-20 for 10 minutes. Plates were incubated with 1:1000 HRP-coupled goat anti-mouse IgG1 antibody (Southern Biotech) in PBS+0.05% Tween 20 for 2 h prior to 3 washes in PBS+0.05% Tween 20 and incubation in tetramethylbenzidine (TMB) ELISA substrate buffer (ThermoFisher). Plates were washed once in distilled deionized water and spots were manually enumerated and antibody-secreting cells (ASC) per million splenocytes was determined.\nas §1"}, "[1]": {"conditions": "25 mg/kg daily i.p., lung sections"}, "[2]": {"conditions": "mediastinal lymph nodes, day 18"}, "[3]": {"conditions": "75 mg/kg, day 7 to 13 after OVA/Alum"}, "[4]": {"conditions": "4EGI-1 day 7 to 13 after OVA/Alum"}}, "data": [{"smiles": "O=C(O)C(Cc1ccccc1[N+](=O)[O-])=NNc1nc(-c2ccc(Cl)c(Cl)c2)cs1", "note": "(mixture of isomers) [4EGI-1]", "values": [{"measurement": "OT2 T cells populating the spleen vs non-treated OT2 T cells", "setting": "OT2 T cells; 34 days post-transfer", "value": "equal"}, {"measurement": "OT2 T cells populating the spleen vs non-treated OT2 T cells", "setting": "OT2 T cells; assayed 7 days", "value": "equal"}, {"measurement": "intracellular levels of eIF4E in recovered OT2 T cells", "setting": "OT2 T cells; day 34 post-transfer", "value": "sustained reduction"}, {"measurement": "reduction in number of OT2 TFH cells in the spleen", "setting": "OT2 T cells; following OVA/Alum immunization", "value": "two-thirds"}, {"measurement": "levels of pulmonary TH2 cells (GATA3+ or IL-13+)", "setting": "TH2 cells and Tregs; 25 mg/kg daily i.p., day 18", "value": "no effect"}, {"measurement": "levels of pulmonary Tregs (Foxp3+)", "setting": "TH2 cells and Tregs; 25 mg/kg daily i.p., day 18", "value": "no effect"}, {"measurement": "levels of pulmonary eosinophils", "setting": "TH2 cells and Tregs; 25 mg/kg daily i.p., day 18", "value": "no effect"}, {"measurement": "airway inflammation", "setting": "TH2 cells and Tregs; [1]", "value": "no effect"}, {"measurement": "mucin production", "setting": "TH2 cells and Tregs; [1]", "value": "no effect"}, {"measurement": "formation of GC B cells in draining lymph nodes", "setting": "TH2 cells and Tregs; [2]", "value": "strongly reduced"}, {"measurement": "formation of TFH cells in draining lymph nodes", "setting": "TH2 cells and Tregs; [2]", "value": "strongly reduced"}, {"measurement": "secretion of class-switched immunoglobulins", "setting": "TH2 cells and Tregs; serum total IgE, day 18", "value": "strongly reduced"}, {"measurement": "reduction of CD4+ T cell protein synthesis (SUnSET)", "setting": "pre-existing TFH cells; [3]", "value": "approximately half"}, {"measurement": "total number of CD4+ T cells in spleen", "setting": "pre-existing TFH cells; [3]", "value": "without significantly reducing"}, {"measurement": "reduction of levels of GC B cells", "setting": "pre-existing TFH cells; [4]", "value": 3, "unit": "fold"}, {"measurement": "reduction of levels of OVA-specific IgG1 ASC cells", "setting": "pre-existing TFH cells; [4]", "value": 3, "unit": "fold"}, {"measurement": "reduction of levels of pre-existing splenic CD4+ TFH cells", "setting": "pre-existing TFH cells; [4]", "value": 3, "unit": "fold"}, {"measurement": "serum OVA-specific IgG1 antibody", "setting": "pre-existing TFH cells; [4]", "value": "moderately reduced"}]}]}
